The source of these data is US20110009628A1, “Compounds and Compositions for Modulating Lipid Levels and Methods of Preparing Same” (priority 2009, published 2011).

A short description of the series: in vivo. On the set-up: species or system Golden Syrian hamsters. The following applies: male, Golden Syrian, hamster, po. Here is the method:
For testing the efficacy of Compound 141 (phosphate salt of Compound 127) or its enantiomers (Compound 162/Compound 163) the following suspension formulation procedure was developed to make 100 ml of Compound 141 in suspension at 10 mg/ml concentration in 0.1 M tartaric buffer pH. 3 containing 0.5% hydroxypropylcellulose H-type (HPC-H):
Step 1: 1.50 g L-(+)-tartaric acid was dissolved in 100 mL water to prepare a tartaric acid solution. The solution was adjusted to pH 3 with 1.2 mL 5N NaOH solution to provide the tartaric acid buffer (100 mM). Step 2: 0.5 g HPC-H powder was added to 10 mL tartaric acid buffer (100 mM) at 50° C. The slurry was stirred for 30 minutes, and then diluted with 90 mL tartaric acid buffer (100 mM) at room temperature to provide 0.5% HPC-H. Agitation was continued until all particles were dissolved and the solution was completely free of gels. Step 3: 1.20 g Compound 141 (or Compound 162 or Compound 163) and 1.20 g mannitol were mixed and ground through a 120 mesh sieve, then the mixture was ground slightly again. The mixture was dispersed in 100 mL 0.5% HPC-H-L-(+)-Tartaric acid buffer (pH=3), then stirred until the drug dispersed evenly. The final pH was 2.6. All the above procedures were completed at room temperature (˜25° C.). The final concentration of Compound 141 was 10 mg/ml after correction of the salt weight.
The pharmacokinetic profile and bioavailability of Compound 141 (phosphate salt of Compound 127) in male Wistar rats following single intravenous (iv) and oral administration (p.o.) were measured according to the procedures of Example 4 and are summarized in Table 11. The pharmacokinetic profile of Compound 162 in male Golden Syrian masters following oral administration (pox) is summarized in Table 12.

One may read the AUC(0-inf) as the area under the concentration-time curve extrapolated to infinity. A low value points to low exposure. Usually AUC(0-t) stands for exposure summed from dosing to a finite time, without extrapolation to infinity. As usually defined, the Cmax is the peak of the concentration-time curve. For orientation: MRT inf means a mean duration of stay, worked out from the concentration-time curve. Usually MRT last stands for the average time that molecules of a dose stay in the body. The Tmax is the time from dosing to the highest level.

Structures can show the parent of a compound that is named as a salt.

Under “15 mg/kg”, `COc1cc2c(cc1OC)C1Cc3ccc(OC)c(OS(=O)(=O)c4cccc(F)c4)c3CN1CC2` (single isomer, unassigned) [Compound 162, 2,3,10-Trimethoxy-5,6,7,8,13,13a-hexahydroisoquinolino[2,1-b]isoquinolin-9-yl 3-fluorobenzenesulfonate phosphate Salt (Enantiomer having positive optical rotation)] had an AUC(0-inf) of 914 ng·h/mL, an AUC(0-t) of 889 ng·h/mL, a Cmax of 195 ng/mL and an MRT inf of 6.95 h. For the setting “15 mg/kg”, the MRT last was determined as 6.06 h, the Tmax is 0.5 h and the t1/2z was 5.21 h. Besides, for the setting “30 mg/kg”, the AUC(0-inf) is 2110 ng·h/mL, the AUC(0-t) was found to be 2020 ng·h/mL, the Cmax amounted to 848 ng/mL and the MRT inf was 5.17 h. Further, under “30 mg/kg”, the mean residence time MRT last is 3.81 h, the Tmax worked out at 0.5 h and the t1/2z came to 6.85 h.
